Test results reported in patent CN116323625A, “杂环类衍生物、其制备方法及其医药上的用途” (Zhejiang Hisun Pharmaceutical Co Ltd, priority 2021, dated 2023).

Biological target: T1, KRAS G12D:RAF1 protein interaction [KRAS G12D:RAF1蛋白相互作用] (Homo sapiens, UniProt P01116, G12D)
T1 construct: purchased Cisbio 63ADK000CB21PEG
Experiment: Inhibition of the KRAS G12D:RAF1 protein interaction (TR-FRET binding assay)
Conditions: in vitro, 10000nM-0.1nM, 4 h at room temperature

T1 sequence (P01116 1-188 isoform P01116-2 G12D): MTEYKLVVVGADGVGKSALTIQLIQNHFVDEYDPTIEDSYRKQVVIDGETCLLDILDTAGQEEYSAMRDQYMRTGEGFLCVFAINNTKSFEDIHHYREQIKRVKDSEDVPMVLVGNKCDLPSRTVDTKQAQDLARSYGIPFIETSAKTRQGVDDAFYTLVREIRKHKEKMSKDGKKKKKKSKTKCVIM

## O=C([C@H]1CCCN1)N1C2CCC1CN(c1nc(OC[C@@]34CCCN3C[C@H](F)C4)nc3c(F)c(-c4cc(O)cc5cccc(F)c45)ncc13)C2 [实施例3, 4-(8-(D-prolyl)-3,8-diazabicyclo[3.2.1]octan-3-yl)-8-fluoro-7-(8-fluoro-3-hydroxynaphthalen-1-yl)-2-(((2R,7aS)-2-fluorotetrahydro-1H-pyrrolizin-7a(5H)-yl)methoxy)pyrido[4,3-d]pyrimidine]
  IC50: 114 nM

## OCCN1C2CCC1CN(c1nc(OC[C@@]34CCCN3C[C@H](F)C4)nc3c(F)c(-c4cc(O)cc5cccc(F)c45)ncc13)C2 [实施例2, 5-fluoro-4-(8-fluoro-2-(((2R,7aS)-2-fluorotetrahydro-1H-pyrrolizin-7a(5H)-yl)methoxy)-4-(8-(2-hydroxyethyl)-3,8-diazabicyclo[3.2.1]octan-3-yl)pyrido[4,3-d]pyrimidin-7-yl)naphthalen-2-ol]
  IC50: 189 nM
